Results: ChEMBL document CHEMBL3813674 (Medchemcomm, 2016)
Converted amounts (≈) assume the structure as drawn.

Assays:
Assay type in all cases: physicochemical
[1] = Solubility of the compound in ChCl-P solvent at HBA:HBD 1:2 molar ratio and 37 degC measured after 24 hrs by HPLC analysis
[2] = Solubility of the compound in ChCl-G solvent at 37 degC measured after 24 hrs by HPLC analysis
[3] = Solubility of the compound in ChCl-EG solvent at 37 degC measured after 24 hrs by HPLC analysis
[4] = Solubility of the compound in ChCl-GA1 solvent at 37 degC measured after 24 hrs by HPLC analysis
[5] = Solubility of the compound in ChCl-GA2 solvent at 37 degC measured after 24 hrs by HPLC analysis
[6] = Solubility of the compound in ChCl-MA1 solvent at 37 degC measured after 24 hrs by HPLC analysis
[7] = Solubility of the compound in ChCl-OA solvent at 37 degC measured after 24 hrs by HPLC analysis
[8] = Solubility of the compound in ChCl-LA1 solvent at 37 degC measured after 24 hrs by HPLC analysis
[9] = Solubility of the compound in ChCl-LA2 solvent at 37 degC measured after 24 hrs by HPLC analysis
[10] = Solubility of the compound in ChCl-U solvent at 37 degC measured after 24 hrs by HPLC analysis
[11] = Solubility of the compound in EAC-EG solvent at 37 degC measured after 24 hrs by HPLC analysis
[12] = Solubility of the compound in EAC-P solvent at 37 degC measured after 24 hrs by HPLC analysis
[13] = Solubility of the compound in EAC-LA2 solvent at 37 degC measured after 24 hrs by HPLC analysis
[14] = Solubility of the compound in TPAB-P solvent at 37 degC measured after 24 hrs by HPLC analysis
[15] = Solubility of the compound in TPAB-LA1 solvent at 37 degC measured after 24 hrs by HPLC analysis
[16] = Solubility of the compound in BE-LA1 solvent at 37 degC measured after 24 hrs by HPLC analysis
[17] = Solubility of the compound in ChBt-LA1 solvent at 37 degC measured after 24 hrs by HPLC analysis
[18] = Solubility of the compound in water at 37 degC measured after 24 hrs by HPLC analysis; conditions: for solubility at 24 h: water
[19] = Solubility of the compound in ChCl-P solvent at HBA:HBD 1:3 molar ratio and 37 degC measured after 24 hrs by HPLC analysis
[20] = Solubility of the compound in ChCl-P solvent at HBA:HBD 1:4 molar ratio and 37 degC measured after 24 hrs by HPLC analysis
[21] = Solubility of the compound in ChCl-P solvent at HBA:HBD 1:5 molar ratio and 37 degC measured after 24 hrs by HPLC analysis
[22] = Solubility of the compound in 1,2-propanediol at 37 degC measured after 24 hrs by HPLC analysis
[23] = Solubility of the compound in ChCl-LA1 solvent at HBA:HBD 1:2 molar ratio and 37 degC measured after 24 hrs by HPLC analysis
[24] = Solubility of the compound in ChCl-LA1 solvent at HBA:HBD 1:3 molar ratio and 37 degC measured after 24 hrs by HPLC analysis
[25] = Solubility of the compound in ChCl-LA1 solvent at HBA:HBD 1:4 molar ratio and 37 degC measured after 24 hrs by HPLC analysis
[26] = Solubility of the compound in ChCl-LA1 solvent at HBA:HBD 1:5 molar ratio and 37 degC measured after 24 hrs by HPLC analysis
[27] = Solubility of the compound in levulinic acid at 37 degC measured after 24 hrs by HPLC analysis
[28] = Half life of the compound at optimal pH
[29] = Ratio of half life of compound in ChCl-P solvent to half life of compound in water; conditions: buffer
[30] = Half life of compound in ChCl-P solvent at 2.5 mg by HPLC method
[31] = Half life of compound in water at 2.5 mg by HPLC method

Structure (SMILES) | solubility [1] [mg/mL] | solubility [2] [mg/mL] | solubility [3] [mg/mL] | solubility [4] [mg/mL] | solubility [5] [mg/mL] | solubility [6] [mg/mL] | solubility [7] [mg/mL] | solubility [8] [mg/mL] | solubility [9] [mg/mL] | solubility [10] [mg/mL] | solubility [11] [mg/mL] | solubility [12] [mg/mL] | solubility [13] [mg/mL] | solubility [14] [mg/mL] | solubility [15] [mg/mL] | solubility [16] [mg/mL] | solubility [17] [mg/mL] | solubility [19] [mg/mL] | solubility [20] [mg/mL] | solubility [21] [mg/mL] | further results
CC(=O)Nc1ccc(O)cc1 [ACETAMINOPHEN] | 324 | 140.3 (≈ 928 mM) | 287 (≈ 1900 mM) | 238.1 (≈ 1580 mM) | 224.8 (≈ 1490 mM) | 266.3 (≈ 1760 mM) | 186.7 (≈ 1240 mM) | 279 (≈ 1850 mM) | 254 (≈ 1680 mM) | 169.7 (≈ 1120 mM) | 173.9 (≈ 1150 mM) | 188.6 (≈ 1250 mM) | 141.2 (≈ 934 mM) | 352.7 (≈ 2330 mM) | 316.5 (≈ 2090 mM) | 212.1 (≈ 1400 mM) | 89.07 (≈ 589 mM) | 324 | 267.9 | 246.2 | solubility at 24 h [18]: 19.9 mg/mL (≈ 132 mM); solubility [22]: 235.1 mg/mL (≈ 1560 mM); solubility [23]: 279 mg/mL; solubility [24]: 217.4 mg/mL; solubility [25]: 208.4 mg/mL; solubility [26]: 199.8 mg/mL; solubility [27]: 144.5 mg/mL (≈ 956 mM)
CC(=O)Oc1ccccc1C(=O)O [ASPIRIN] | 202 | 42.48 (≈ 236 mM) | 139 (≈ 772 mM) | 76.28 (≈ 423 mM) | 67.43 (≈ 374 mM) | 126.3 (≈ 701 mM) | 86.32 (≈ 479 mM) | 135 (≈ 749 mM) | 91.3 (≈ 507 mM) | 147.9 (≈ 821 mM) | 56.84 (≈ 315 mM) | 82.18 (≈ 456 mM) | 44.57 (≈ 247 mM) | 220.2 (≈ 1220 mM) | 163.7 (≈ 909 mM) | 149.8 (≈ 831 mM) | 37.06 (≈ 206 mM) | 184.6 | 179.2 | 168.7 | solubility ([18]; buffer, 24 h): 3.3 mg/mL (≈ 18.3 mM); solubility [22]: 134.3 mg/mL (≈ 745 mM); solubility [23]: 135 mg/mL; solubility [24]: 113.1 mg/mL; solubility [25]: 109.9 mg/mL; solubility [26]: 104.4 mg/mL; solubility [27]: 95.63 mg/mL (≈ 531 mM); half-life [28]: < 336 h; Ratio [29]: 8.2; half-life [30]: 17.5 h; half-life [31]: 2.13 h
CC(C)Cc1ccc(C(C)C(=O)O)cc1 (stereo unspecified) [IBUPROFEN] | 183.3 | 3.82 (≈ 18.5 mM) | 24.29 (≈ 118 mM) | 25.38 (≈ 123 mM) | 9.49 (≈ 46 mM) | 25.87 (≈ 125 mM) | 31.51 (≈ 153 mM) | 78.69 (≈ 381 mM) | 17.95 (≈ 87 mM) | 4.5 (≈ 21.8 mM) | 21.42 (≈ 104 mM) | 141.6 (≈ 686 mM) | 20.67 (≈ 100 mM) | 383.4 (≈ 1860 mM) | 194.8 (≈ 944 mM) | 280.2 (≈ 1360 mM) | 35.05 (≈ 170 mM) | 191.7 | 226.1 | 267.6 | solubility at 24 h [18]: 0.07 mg/mL (≈ 0.339 mM); solubility [22]: 380 mg/mL (≈ 1840 mM); solubility [27]: 159.4 mg/mL (≈ 773 mM)
